Assay results published in US12162839B1, “4,5-bis(4-bromophenyl)-2-(4-bromophenyl)-1-hexyl-1H-imidazole as an antimicrobial compound” (KING FAISAL UNIVERSITY, priority 2023, dated 2024).

Legend:
Format in all cases: cell-based
Conditions in all cases: after 10, 20, 40 and 60 minutes at all dilutions 1:100, 1:200, 1:400, 1:800
Staphylococcus aureus = assay: Antimicrobial testing by agar dilution, Staphylococcus aureus
Procedure: (§1) The antimicrobial properties of the 4,5-bis(4-bromophenyl)-2-(4-bromophenyl)-1-hexyl-1H-imidazole (5) were studied by the method of agar dilution. Test solutions of each compound were prepared in concentration of 1% using dimethylformamide as a solvent then they are diluted in physiological solution to obtain the final experimental dilutions 1:100, 1:200, 1:400, 1:800. The effect of these substances were compared with furacillin in a controllable study. The testing microbes used were gram positive bacteria Staphylococcus aureus, gram negative bacteria Escherichia coli, Pseudomonas aeruginosa and Candida albicans fungi were taken. The experiments used for this survey were meat-pentonlu agar (EPA) for cultivation of bacteria and Saburo environment for fungi. Each experiment used 1 ml of test solution on each plate 500 min. Add 2 drops of emulsified with microbes feel. All experimental samples were taken from the agar after 10, 20, 40, 60 minutes in the environment on the basis of Patrk planted. Bacteria were cultivated at a temperature of 37° C. for 1 day and the mushroom was kept in a thermostat for […] at a temperature of 28° C. in the. Then results were checked.

Escherichia coli = assay: Antimicrobial testing by agar dilution, Escherichia coli
Procedure: as §1

Pseudomonas aeruginosa = assay: Antimicrobial testing by agar dilution, Pseudomonas aeruginosa
Procedure: as §1

Candida albicans = assay: Antimicrobial testing by agar dilution, Candida albicans
Procedure: as §1

Measured: inhibition activity (in words)

CCCCCCn1c(-c2ccc(Br)cc2)nc(-c2ccc(Br)cc2)c1-c1ccc(Br)cc1 [4,5-bis(4-bromophenyl)-2-(4-bromophenyl)-1-hexyl-1H-imidazole]
highest inhibition activity: Staphylococcus aureus | Escherichia coli | Pseudomonas aeruginosa | Candida albicans
